From patent publication US9302999B2, “Substituted triazoles as herbicides” (E. I. DU PONT DE NEMOURS AND COMPANY, priority 2012, dated 2016)
Where two headings read alike, the source gives them in different places.

Experiments:
Format in all cases: in vivo
[1] = test system: speedwell (bird's-eye speedwell, Veronica persica); assay: Test D pre-/postemergence: speedwell
Text: (§1) Seeds of plant species selected from bluegrass (annual bluegrass, Poa annua), blackgrass (Alopecurus myosuroides), canarygrass (Phalaris minor), chickweed (common chickweed, Stellaria media), galium (catchweed bedstraw, Galium aparine), bromegrass, downy (downy bromegrass, Bromus tectorum), field poppy (Papaver rhoeas), field violet (Viola arvensis), foxtail, green (green foxtail, Setaria viridis), deadnettle (henbit deadnettle, Lamium amplexicaule), ryegrass, Italian (Italian ryegrass, Lolium multiflorum), kochia (Kochia scoparia), lambsquarters (Chenopodium album), oilseed rape (Brassica napus), pigweed (Amaranthus retroflexus), Russian thistle (Salsola iberica), chamomile (scentless chamomile, Matricaria inodora), speedwell (bird's-eye speedwell, Veronica persica), barley, spring (spring barley, Hordeum vulgare), wheat, spring (spring wheat, Triticum aestivum), buckwheat, wild (wild buckwheat, Polygonum convolvulus), mustard, wild (wild mustard, Sinapis arvensis), oat, wild (wild oat, Avena fatua), radish, wild (wild radish, Raphanus raphanistrum), windgrass (Apera spica-venti), barley, winter (winter barley, Hordeum vulgare), and wheat, winter (winter wheat, Triticum aestivum) were planted into a silt loam soil and treated preemergence with test chemicals formulated in a non-phytotoxic solvent mixture which included a surfactant. At the same time, these same crop and weed species were planted in pots containing the planting medium comprising spaghnum peat moss, vermiculite, wetting agent and starter nutrients and treated with postemergence applications of the test chemicals formulated in the same manner. Plants ranged in height from 2 to 18 cm (1- to 4-leaf stage).
(§2) Treated plants and controls were maintained in a controlled growth environment for 14 to 21 days after which time all species were compared to controls and visually evaluated. Plant response ratings, summarized in Table D, are based on a scale of 0 to 100 where 0 is no effect and 100 is complete control. A dash (-) response means no test result.

[2] = test system: rice (Oryza sativa); assay: Test C flooded paddy test: rice; settings: scale 0 to 100 (0 no effect, 100 complete control); for plant injury at 62 g/ha / plant injury at 125 g/ha / plant injury at 250 g/ha / plant injury at 31 g/ha: Oryza sativa, read-out: Plant response rating, Rice
Summary of the method: (§3)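 Greenhouse plants treated at the 2-leaf stage by dosing the flood water (3 cm depth, maintained) were compared with controls after 13 to 15 days and rated 0 to 100, where 100 means complete control; a dash marks no test result.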

[3] = test system: oat, wild (wild oat, Avena fatua); assay: Test D pre-/postemergence: oat, wild
Text: as §1, §2

[4] = test system: field poppy (Papaver rhoeas); assay: Test D pre-/postemergence: field poppy
Text: as §1, §2

[5] = test system: sedge, umbrella (small-flower umbrella sedge, Cyperus difformis); assay: Test C flooded paddy test: sedge, umbrella; settings: scale 0 to 100 (0 no effect, 100 complete control); for pest or weed control at 62 g/ha / pest or weed control at 125 g/ha / pest or weed control at 250 g/ha / pest or weed control at 31 g/ha: Cyperus difformis, read-out: Plant response rating, Sedge, Umbrella
Summary of the method: as §3

[6] = test system: bermudagrass (Cynodon dactylon); assay: Test C pre-/postemergence: bermudagrass
Text: Seeds of plant species selected from blackgrass (Alopecurus myosuroides), bromegrass, downy (downy bromegrass, Bromus tectorum), foxtail, green (green foxtail, Setaria viridis), ryegrass, Italian (Italian ryegrass, Lolium multiflorum), winter wheat (Triticum aestivum), wild oat (Avena fatua), galium (catchweed bedstraw, Galium aparine), bermudagrass (Cynodon dactylon), surinam grass (Brachiaria decumbens), cocklebur (common cocklebur, Xanthium strumarium), corn (Zea mays), large crabgrass (Digitaria sanguinalis), woolly cupgrass (Eriochloa villosa), foxtail, giant (giant foxtail, Setaria faberii), goosegrass (Eleusine indica), johnsongrass (Sorghum halepense), kochia (Kochia scoparia), lambsquarters (Chenopodium album), morningglory (Ipomoea coccinea), nightshade (eastern black nightshade, Solanum ptycanthum), nutsedge, yellow (yellow nutsedge, Cyperus esculentus), pigweed (Amaranthus retroflexus), ragweed (common ragweed, Ambrosia elation), soybean (Glycine max), common (oilseed) sunflower (Helianthus annuus), Russian thistle (Salsola kali) and velvetleaf (Abutilon theophrasti) were planted into a blend of loam soil and sand and treated preemergence with test chemicals formulated in a non-phytotoxic solvent mixture which included a surfactant.
At the same time, plants selected from these crop and weed species and also barley (winter barley, Hordeum vulgare), canarygrass (Phalaris minor), chickweed (common chickweed, Stellaria media) windgrass (Apera spica-venti) and deadnettle (henbit deadnettle, Lamium amplexicaule) were planted in pots containing Redi-Earth® planting medium (Scotts Company, 14111 Scottslawn Road, Marysville, Ohio 43041) comprising spaghnum peat moss, vermiculite, wetting agent and starter nutrients and treated with postemergence applications of test chemicals formulated in the same manner. Plants ranged in height from 2 to 18 cm (1- to 4-leaf stage) for postemergence treatments.
as §2, with “greenhouse” for “controlled growth environment”, “13” for “14”, “15 days,” for “21 days”, “C,” for “D,”

[7] = Postemergence, 31 g ai/ha, scale 0 to 100 (0 no effect, 100 complete control)
[8] = Postemergence, 62 g ai/ha, scale 0 to 100 (0 no effect, 100 complete control)
[9] = Postemergence, 125 g ai/ha, scale 0 to 100, 0 no effect, 100 complete control
[10] = Postemergence, 250 g ai/ha, scale 0 to 100 (0 no effect, 100 complete control)
[11] = Postemergence, 16 g ai/ha, scale 0 to 100
[12] = Preemergence, 31 g ai/ha, scale 0 to 100 (0 no effect, 100 complete control)
[13] = Preemergence, 62 g ai/ha, scale 0 to 100
[14] = Preemergence, 125 g ai/ha, scale 0 to 100
[15] = Preemergence, 250 g ai/ha, scale 0 to 100
[16] = Flood (flooded paddy test), 62 g ai/ha, visual rating after 13 to 15 days
[17] = Flood (flooded paddy test), 125 g ai/ha, visual rating after 13 to 15 days
[18] = Flood (flooded paddy test), 250 g ai/ha, visual rating after 13 to 15 days
[19] = Preemergence, 16 g ai/ha, scale 0 to 100 (0 no effect, 100 complete control)
[20] = Postemergence, 250 g ai/ha, scale 0 to 100
[21] = Preemergence, 31 g ai/ha, scale of 0 to 100, 0 is no effect, 100 is complete control
[22] = Preemergence, 62 g ai/ha, scale 0 to 100, 0 no effect, 100 complete control
[23] = Preemergence, 125 g ai/ha, scale 0 to 100, 0 no effect, 100 complete control
[24] = Preemergence, 250 g ai/ha, scale 0 to 100, 0 no effect, 100 complete control

Cc1nn(-c2ccc(F)cc2)nc1Cc1ccnc(C(F)(F)F)c1 [Compound 16, 4-[[2-(4-fluorophenyl)-5-methyl-2H-1,2,3-triazol-4-yl]methyl]-2-(trifluoromethyl)pyridine]
Plant response rating: Speedwell [1, 7]: 75
Plant response rating: Speedwell [1, 8]: 85
Plant response rating: Speedwell [1, 9]: 95
Plant response rating: Speedwell [1, 10]: 100
Plant response rating, Speedwell [1, 11]: 25
Plant response rating, Speedwell [1, 12]: 20
Plant response rating, Speedwell [1, 13]: 40
Plant response rating, Speedwell [1, 14]: 100
Plant response rating, Speedwell [1, 15]: 100
plant injury at 62 g/ha [2, 16]: 30%
plant injury at 125 g/ha [2, 17]: 40%
plant injury at 250 g/ha [2, 18]: 50%
plant injury at 31 g/ha ([2]; Flood, 31 g ai/ha): 20%
Plant response rating: Oat, Wild [3, 7]: 10
Plant response rating: Oat, Wild [3, 8]: 30
Plant response rating: Oat, Wild [3, 9]: 45
Plant response rating: Oat, Wild [3, 10]: 50
Plant response rating, Oat, Wild [3, 11]: 0
Plant response rating, Oat, Wild [3, 19]: 0
Plant response rating, Oat, Wild [3, 12]: 10
Plant response rating, Oat, Wild [3, 13]: 10
Plant response rating, Oat, Wild [3, 14]: 100
Plant response rating, Oat, Wild [3, 15]: 100
Plant response rating: Field Poppy [4, 7]: 100
Plant response rating: Field Poppy [4, 8]: 100
Plant response rating: Field Poppy [4, 9]: 100
Plant response rating: Field Poppy [4, 10]: 100
Plant response rating, Field Poppy [4, 11]: 0
Plant response rating, Field Poppy [4, 19]: 100
Plant response rating, Field Poppy [4, 12]: 100
Plant response rating, Field Poppy [4, 13]: 100
Plant response rating, Field Poppy [4, 14]: 100
Plant response rating, Field Poppy [4, 15]: 100
pest or weed control at 62 g/ha [5, 16]: 90%
pest or weed control at 125 g/ha [5, 17]: 95%
pest or weed control at 250 g/ha [5, 18]: 95%
pest or weed control at 31 g/ha ([5]; Flood, 31 g ai/ha): 80%
Plant response rating, Bermudagrass [6, 7]: 5
Plant response rating, Bermudagrass [6, 8]: 5
Plant response rating, Bermudagrass [6, 9]: 15
Plant response rating, Bermudagrass [6, 20]: 65
Plant response rating, Bermudagrass [6, 21]: 5
Plant response rating, Bermudagrass [6, 22]: 25
Plant response rating, Bermudagrass [6, 23]: 75
Plant response rating, Bermudagrass [6, 24]: 75

CCc1nn(-c2ccc(C(F)(F)F)cc2)nc1Oc1cccc(OC(F)(F)F)c1 [Compound 125, 4-ethyl-5-[3-(trifluoromethoxy)phenoxy]-2-[4-(trifluoromethyl)phenyl]-2H-1,2,3-triazole]
plant injury at 125 g/ha [2, 17]: 0%
plant injury at 250 g/ha [2, 18]: 10%
plant injury at 31 g/ha ([2]; Flood, 31 g ai/ha): 0%
plant injury at 62 g/ha ([2]; Flood, 62 g ai/ha): 0%
pest or weed control at 125 g/ha [5, 17]: 80%
pest or weed control at 250 g/ha [5, 18]: 85%
pest or weed control at 31 g/ha ([5]; Flood, 31 g ai/ha): 0%
pest or weed control at 62 g/ha ([5]; Flood, 62 g ai/ha): 40%

Cc1nn(-c2ccc(C(F)(F)F)cc2)nc1Cc1cccc(C(F)(F)F)c1 [Compound 124]
Plant response rating, Rice [2, 17]: 15
Plant response rating, Rice [2, 18]: 20
Plant response rating, Rice ([2]; Flood, 31 g ai/ha): 0
Plant response rating, Rice ([2]; Flood, 62 g ai/ha): 0
Plant response rating, Sedge, Umbrella [5, 17]: 90
Plant response rating, Sedge, Umbrella [5, 18]: 90
Plant response rating, Sedge, Umbrella ([5]; Flood, 31 g ai/ha): 50
Plant response rating, Sedge, Umbrella ([5]; Flood, 62 g ai/ha): 90
Plant response rating, Bermudagrass ([6]; Postemergence, 16 g ai/ha, scale 0 to 100, 0 no effect, 100 complete control): 5
Plant response rating, Bermudagrass [6, 7]: 25
Plant response rating, Bermudagrass [6, 8]: 45
Plant response rating, Bermudagrass [6, 9]: 60

COc1nn(-c2ccc(C(F)(F)F)cc2)nc1Cn1ccc(C(F)(F)F)n1 [Compound 17, 4-methoxy-2-[4-(trifluoromethyl)phenyl]-5-[[3-(trifluoromethyl)-1H-pyrazol-1-yl]methyl]-2H-1,2,3-triazole]
plant injury at 62 g/ha [2, 16]: 15%
plant injury at 125 g/ha [2, 17]: 35%
plant injury at 250 g/ha [2, 18]: 45%
plant injury at 31 g/ha ([2]; Flood, 31 g ai/ha): 10%
pest or weed control at 62 g/ha [5, 16]: 20%
pest or weed control at 125 g/ha [5, 17]: 30%
pest or weed control at 250 g/ha [5, 18]: 75%
pest or weed control at 31 g/ha ([5]; Flood, 31 g ai/ha): 0%

Cc1nn(-c2ccc(C(F)(F)F)cc2)nc1Cc1ccnc(C(F)(F)F)c1 [Compound 47, 4-[[5-methyl-2-[4-(trifluoromethyl)phenyl]-2H-1,2,3-triazol-4-yl]methyl]-2-(trifluoromethyl)pyridine]
plant injury at 62 g/ha [2, 16]: 50%
plant injury at 125 g/ha [2, 17]: 60%
plant injury at 250 g/ha [2, 18]: 60%
plant injury at 31 g/ha ([2]; Flood, 31 g ai/ha): 30%
pest or weed control at 62 g/ha [5, 16]: 85%
pest or weed control at 125 g/ha [5, 17]: 90%
pest or weed control at 250 g/ha [5, 18]: 90%
pest or weed control at 31 g/ha ([5]; Flood, 31 g ai/ha): 75%
Plant response rating, Bermudagrass [6, 7]: 10
Plant response rating, Bermudagrass [6, 8]: 20
Plant response rating, Bermudagrass [6, 9]: 55
Plant response rating, Bermudagrass [6, 20]: 75
Plant response rating, Bermudagrass [6, 21]: 100
Plant response rating, Bermudagrass [6, 22]: 100
Plant response rating, Bermudagrass [6, 23]: 100
Plant response rating, Bermudagrass [6, 24]: 100
